Calls of active or inactive are those of the source. No cut-off for these calls is given here.
How the values were obtained:
Neutrophil [1] = test: Antiinflammatory activity in human neutrophil assessed as inhibition of fMLP-induced neutrophil chemoattraction 30 nM after 2 hrs by Boyden chamber v; format: functional, cell-based
Neutrophil [2] = test: Inhibition of fMLP-induced actin polymerization in human neutrophil at 100 nM after 30 mins by DAPI staining based immunofluorescence; format: functional, cell-based
Mus musculus [3] = test: Inhibition of LTB4-induced neutrophil recruitment in Swiss mouse at 30 mg/kg, sc administered pre-inflammatory stimulus after 6 hrs by Newbauer chamber using Romanowsky stain; format: functional, organism-based; design: dose 30 mg/kg
Mus musculus [4] = test: Inhibition of fMLP-induced neutrophil recruitment in Swiss mouse at 30 mg/kg, sc administered pre-inflammatory stimulus after 6 hrs by Newbauer chamber using Romanowsky stain; format: functional, organism-based; design: dose 30 mg/kg
Mus musculus [5] = test: Inhibition of CXCL1-induced neutrophil recruitment in Swiss mouse at 100 mg/kg, sc administered pre-inflammatory stimulus after 6 hrs by Newbauer chamber using Romanowsky stain; format: functional, organism-based; design: dose 100 mg/kg
Neutrophil [6] = test: Antiinflammatory activity in human neutrophil assessed as inhibition of fMLP-induced neutrophil chemoattraction 100 nM after 2 hrs by Boyden chamber v; format: functional, cell-based
Neutrophil [7] = test: Antiinflammatory activity in human neutrophil assessed as inhibition of LTB4-induced neutrophil chemoattraction 10 nM after 2 hrs by Boyden chamber v; format: functional, cell-based
Neutrophil [8] = test: Antiinflammatory activity in human neutrophil assessed as inhibition of CXCL8-induced neutrophil chemoattraction 30 nM after 2 hrs by Boyden chamber v; format: functional, cell-based
Neutrophil [9] = test: Inhibition of FLPR1 protein expression in human neutrophil at 100 nM after 30 mins by flow cytometry; format: functional, cell-based
Mus musculus [10] = test: Inhibition of CXCL5-induced neutrophil recruitment in Swiss mouse at 100 mg/kg, sc administered pre-inflammatory stimulus after 6 hrs by Newbauer chamber using Romanowsky stain; format: functional, organism-based; design: dose 100 mg/kg
Mus musculus [11] = test: Inhibition of CXCL1-induced neutrophil recruitment in Swiss mouse at 30 mg/kg, sc administered pre-inflammatory stimulus after 6 hrs by Newbauer chamber using Romanowsky stain; format: functional, organism-based; design: dose 30 mg/kg
Neutrophil [12] = test: Inhibition of LTB4-induced actin polymerization in human neutrophil at 100 nM after 30 mins by DAPI staining based immunofluorescence; format: functional, cell-based
Mus musculus [13] = test: Inhibition of LTB4-induced neutrophil recruitment in Swiss mouse at 100 mg/kg, sc administered pre-inflammatory stimulus after 6 hrs by Newbauer chamber using Romanowsky stain; format: functional, organism-based; design: dose 100 mg/kg
Neutrophil [14] = test: Antiinflammatory activity in human neutrophil assessed as inhibition of fMLP-induced neutrophil chemoattraction 10 nM after 2 hrs by Boyden chamber v; format: functional, cell-based
Neutrophil [15] = test: Inhibition of CXCL8-induced actin polymerization in human neutrophil at 100 nM after 30 mins by DAPI staining based immunofluorescence; format: functional, cell-based
Neutrophil [16] = test: Inhibition of CXCR1 protein expression in human neutrophil at 100 nM after 30 mins by flow cytometry; format: functional, cell-based
Mus musculus [17] = test: Inhibition of fMLP-induced neutrophil recruitment in Swiss mouse at 300 mg/kg, sc administered pre-inflammatory stimulus after 6 hrs by Newbauer chamber using Romanowsky stain; format: functional, organism-based; design: dose 300 mg/kg
Neutrophil [18] = test: Antiinflammatory activity in human neutrophil assessed as inhibition of LTB4-induced neutrophil chemoattraction 100 nM after 2 hrs by Boyden chamber v; format: functional, cell-based
Mus musculus [19] = test: Inhibition of CXCL5-induced neutrophil recruitment in Swiss mouse at 30 mg/kg, sc administered pre-inflammatory stimulus after 6 hrs by Newbauer chamber using Romanowsky stain; format: functional, organism-based; design: dose 30 mg/kg
Neutrophil [20] = test: Antiinflammatory activity in human neutrophil assessed as inhibition of LTB4-induced neutrophil chemoattraction 300 to 1000 nM after 2 hrs by Boyden chamber v; format: functional, cell-based
Neutrophil [21] = test: Inhibition of BLT1 protein expression in human neutrophil at 100 nM after 30 mins by flow cytometry; format: functional, cell-based
Neutrophil [22] = test: Antiinflammatory activity in human neutrophil assessed as inhibition of CXCL8-induced neutrophil chemoattraction 300 to 1000 nM after 2 hrs by Boyden chamber v; format: functional, cell-based
Neutrophil [23] = test: Antiinflammatory activity in human neutrophil assessed as inhibition of LTB4-induced neutrophil chemoattraction 30 nM after 2 hrs by Boyden chamber v; format: functional, cell-based
Mus musculus [24] = test: Inhibition of CXCL5-induced neutrophil recruitment in Swiss mouse at 300 mg/kg, sc administered pre-inflammatory stimulus after 6 hrs by Newbauer chamber using Romanowsky stain; format: functional, organism-based; design: dose 300 mg/kg
Neutrophil [25] = test: Antiinflammatory activity in human neutrophil assessed as inhibition of CXCL8-induced neutrophil chemoattraction 100 nM after 2 hrs by Boyden chamber v; format: functional, cell-based
Neutrophil [26] = test: Inhibition of CXCR2 protein expression in human neutrophil at 100 nM after 30 mins by flow cytometry; format: functional, cell-based
Mus musculus [27] = test: Inhibition of CXCL1-induced neutrophil recruitment in Swiss mouse at 300 mg/kg, sc administered pre-inflammatory stimulus after 6 hrs by Newbauer chamber using Romanowsky stain; format: functional, organism-based; design: dose 300 mg/kg
Mus musculus [28] = test: Inhibition of LTB4-induced neutrophil recruitment in Swiss mouse at 300 mg/kg, sc administered pre-inflammatory stimulus after 6 hrs by Newbauer chamber using Romanowsky stain; format: functional, organism-based; design: dose 300 mg/kg
Neutrophil [29] = test: Antiinflammatory activity in human neutrophil assessed as inhibition of fMLP-induced neutrophil chemoattraction 300 to 1000 nM after 2 hrs by Boyden chamber v; format: functional, cell-based
Neutrophil [30] = test: Antiinflammatory activity in human neutrophil assessed as inhibition of CXCL8-induced neutrophil chemoattraction 10 nM after 2 hrs by Boyden chamber v; format: functional, cell-based
Mus musculus [31] = test: Inhibition of fMLP-induced neutrophil recruitment in Swiss mouse at 100 mg/kg, sc administered pre-inflammatory stimulus after 6 hrs by Newbauer chamber using Romanowsky stain; format: functional, organism-based; design: dose 100 mg/kg

Which results are given for `O=c1c(O)c(-c2ccc(O)c(O)c2)oc2cc(O)cc(O)c12`?
inhibition (Neutrophil [1]): Active; inhibition (Neutrophil [2]): Active; inhibition (Mus musculus [3]): inactive; inhibition (Mus musculus [4]): Active; inhibition (Mus musculus [5]): Active; inhibition (Neutrophil [6]): Active; inhibition (Neutrophil [7]): Active; inhibition (Neutrophil [8]): Active; inhibition (Neutrophil [9]): inactive; inhibition (Mus musculus [10]): Active; inhibition (Mus musculus [11]): inactive; inhibition (Neutrophil [12]): Active; inhibition (Mus musculus [13]): Active; inhibition (Neutrophil [14]): Active; inhibition (Neutrophil [15]): Active; inhibition (Neutrophil [16]): inactive; inhibition (Mus musculus [17]): Active; inhibition (Neutrophil [18]): Active; inhibition (Mus musculus [19]): inactive; inhibition (Neutrophil [20]): Active; inhibition (Neutrophil [21]): inactive; inhibition (Neutrophil [22]): Active; inhibition (Neutrophil [23]): Active; inhibition (Mus musculus [24]): Active; inhibition (Neutrophil [25]): Active; inhibition (Neutrophil [26]): inactive; inhibition (Mus musculus [27]): Active; inhibition (Mus musculus [28]): Active; inhibition (Neutrophil [29]): Active; inhibition (Neutrophil [30]): Active; inhibition (Mus musculus [31]): Active
